Assays:
CD4^+ T cells = experiment: IFNγ ELISpot assay of enriched T cells; format: cell-based, mice; conditions: CD4^+ T cells plus tumor cell lines, no syngeneic antigen-presenting cells; positive control
Experimental: 1×10^5 4T1 splenocytes were co cultured with either 5×10^4 4T1 or TUBO cells. 5×10^4 4T1 lymphocytes were co cultured with either 2.5×10^4 4T1 or TUBO cells, following the manufacturers' instructions. CD4^+ and CD8^+ T cells were enriched from the spleens of naïve and 4T1-bearing WT and IL-9ko mice using a negative isolation kit (Invitrogen, Carlsbad Calif.). 1×10^5 T cells were co-cultured with 2.5×10^4 4T1 cells or with BM185, a non-specific control tumor line for 40 hours. Each experimental condition was executed in biological triplicates, which in turn comprised triplicate wells. Manufacturer's instructions were followed to reveal INFγ positive spots using the interferon gamma ELISpot kit from Mabtech (cat #3321-2HW-Plus). The plates were imaged and evaluated by ZellNet Consulting, Inc. (Fort Lee N.J.), and result expressed as average of triplicate spots per condition. Phorbol 12-myristate 13-acetate (PMA) was used as a positive control of cell activation.
These cells were co-cultured with 4T1 or BM185 cells, a BALB/c background murine leukemia cell line used here as a negative control (FIG. 4C). […]

4T1 cells = experiment: Experimental metastasis model, tail vein injection of 4T1 cells, foci in the lung; format: in vivo; conditions: IL-9ko mice, 1×10^5 4T1 cells tail vein; IL-9ko without IL-9: 3, WT: 87; p=0.043
From the text: Since few IL-9ko mice that developed 4T1 tumors never had evidence of macro metastases in the lungs, an experimental metastasis model was used to verify whether IL-9 plays a role in 4T1 seeding in the lung. […] Addition of recombinant IL-9 led to enhanced 4T1 seeding in the lungs of IL-9ko mice (an average of 13 foci per lung) (p=0.043, FIGS. 7A and 7B).

With `CCCCCCCCCCCCCC(=O)O[C@@H]1[C@@H](C)[C@@]2(O)[C@@H](C=C(CO)C[C@]3(O)C(=O)C(C)=C[C@@H]23)[C@@H]2C(C)(C)[C@]12OC(C)=O` [PMA, Phorbol 12-myristate 13-acetate] as the molecule, how does the “IFNγ^+ spots” value (CD4^+ T cells) read?
Its value is “produced IFNγ^+ spots only if exposed to PMA”.

B1: recombinant IL-9: Recombinant IL-9 cytokine added to IL-9ko mice in the 4T1 lung metastasis model (protein, UniProt P15247 19-144, looked up)
Interleukin-9: QRCSTTWGIRDTNYLIENLKDDPPSKCSCSGNVTSCLCLSVPTDDCTTPCYREGLLQLTNATQKSRLLPVFHRVKRIVEVLKNITCPSFSCEKPCNQTMAGNTLSFLKSLLGTFQKTEMQRQKSRP
For B1, which “average foci per lung” value (4T1 cells) is on record?
The value was 13 foci per lung.
